From patent publication US20140113931A1, “SUBSTITUTED PICOLINAMIDE KINASE INHIBITORS” (Portola Pharmaceuticals, Inc., priority 2012, published 2014)

Target: T1, full length active recombinant SYK enzyme (Homo sapiens, UniProt P43405)
T1 construct: full length active recombinant SYK enzyme (Millipore, CA); purchased Millipore, CA
Assay: Inhibition of Syk tyrosine phosphorylation activity (LANCE TR-FRET kinase assay)
Assay type: biochemical
Details: 1 nM active SYK enzyme, 550 nM SYK-substrate, 100 μM ATP, 1 hour at room temperature
Experimental: The in vitro and in vivo human Syk activities of the inventive compounds can be determined by various procedures known in the art, such as a test for their ability to inhibit the activity of human plasma Syk. […] The IC50 value is the concentration (in nM) of the compound required to provide 50% inhibition of human Syk proteolytic activity.
An in vitro assay for detecting and measuring inhibition activity against Syk is as follows:
SYK tyrosine phosphorylation activity is measured using the LANCE™ Technology developed by Perkin Elmer Life and Analytical Sciences (Boston, Mass.). LANCE™ refers to homogeneous time resolved fluorometry applications using techniques such as time-resolved fluorescence resonance energy transfer assay (TR-FRET) (see generally for procedures in Perkin Elmer Application Note—How to Optimize a Tyrosine Kinase Assay Using Time Resolved Fluorescence-Based LANCE Detection, wwww.perkinelmer.com/lifesciences). The assay principle involves detection of a phosphorylated substrate using energy transfer from a phosphospecific europium-labeled antibody to streptavidin-allophycocyanin as an acceptor.
Molecules are reconstituted in 30% DMSO and serially diluted 1:3 with the final dilution containing DMSO in the absence of the candidate molecule. The final DMSO concentration in the assay is 3%. Kinase assays are performed as a two part reaction. The first reaction is a kinase reaction and which comprises of a candidate molecule, full length active recombinant SYK enzyme (Millipore, CA) and biotin-labeled SYK-specific substrate biotin-DEEDYESP-OH. The second reaction involves termination of the kinase reaction and the simultaneous addition of the detection reagents-europium-labeled anti-phosphotyrosine reagent (Eu-W1024-PY100, Perkin Elmer, Boston, Mass.) and Streptavidin-Allophycocyanin detection reagent (SA-APC, Prozyme, CA). The kinase reaction is performed in a black U-bottom 96-well microtitre plate. The final reaction volume is 50 μL and contains a final concentration of 1 nM active SYK enzyme, 550 nM SYK-substrate, and 100 μM ATP diluted in a buffer containing 50 mM Tris pH 7.5, 5 mM MgCl2, and 1 mM DTT. The reaction is allowed to proceed for 1 hour at room temperature. The quench buffer contains 100 mM Tris pH 7.5, 300 mM NaCl2, 20 mM EDTA, 0.02% Brij35, and 0.5% BSA. The detection reagents are added to the reaction mixture at the following dilutions-1:500 for Eu-W1024-PY100 and 1:250 for SA-APC. The kinase reaction is terminated by the addition of 50 μL quench buffer containing the detection reagents. The detection is allowed to proceed for 1 hr at room temperature. Detection of the phosphorlated substrate in the absence and presence of inhibitors is measured in the TR-FRET instrument, Analyst HT (Molecular Probes, Sunnyvale, Calif.) and the condition for measurements are set up using CriterionHost Release 2.0 (Molecular Probes, Sunnyvale, Calif.). The settings used are a follows: excitation 360 nm, emission 665-7.5 nm, beam splitter 350 nm 50/50, flash 100 pulses, delay 60 us, integration 400 us, z-height 2 mm. Inhibition of SYK-tyrosine kinase activity is calculated as the maximum response observed in the presence of inhibitor, compared to that in the absence of inhibitor. IC50s were derived by non-linear regression analysis.

SMILES	IC50
Cc1cc(Nc2cc(N[C@@H]3CCCC(F)(F)[C@@H]3N)cnc2C(N)=O)sn1 [Example 2, 5-((1R,2R)-2-amino-3,3-difluorocyclohexylamino)-3-(3-methylisothiazol-5-ylamino)picolinamide]	10 to 100 nM
Cc1cc(Nc2cc(N[C@@H]3CCCC[C@@H]3N)cnc2C(N)=O)sn1 [Example 4, 5-((1R,2S)-2-aminocyclohexylamino)-3-(3-methylisothiazol-5-ylamino)picolinamide]	1 to 10 nM
NC(=O)c1ncc(N[C@@H]2CCCC[C@@H]2N)cc1Nc1cccc(-n2nccn2)c1 [Example 6, 3-(3-(2H-1,2,3-triazol-2-yl)phenylamino)-5-((1R,2S)-2-aminocyclohexylamino)picolinamide]	10 to 100 nM
Cc1cc(Nc2cc(N[C@@H](C(N)=O)C(C)C)cnc2C(N)=O)sn1 [Example 7, (R)-5-(1-amino-3-methyl-1-oxobutan-2-ylamino)-3-(3-methylisothiazol-5-ylamino)picolinamide]	10 to 100 nM
NC(=O)c1ncc(N[C@@H]2CCCC[C@@H]2N)cc1Nc1cc(-c2ccccc2)no1 [Example 8, 5-((1R,2S)-2-aminocyclohexylamino)-3-(3-phenylisoxazol-5-ylamino)picolinamide]	1 to 10 nM
Cc1cc(Nc2cc(N[C@@H]3CCCC[C@@H]3N)cnc2C(N)=O)on1 [Example 10, 5-((1R,2S)-2-aminocyclohexylamino)-3-(3-methylisoxazol-5-ylamino)picolinamide]	10 to 100 nM
CC(C)C[C@@H](Nc1cnc(C(N)=O)c(Nc2cc(-c3ccccc3)no2)c1)C(N)=O [Example 11, (R)-5-(1-amino-4-methyl-1-oxopentan-2-ylamino)-3-(3-phenylisoxazol-5-ylamino)picolinamide]	1 to 10 nM
NC(=O)c1ncc(N[C@@H]2CCCC[C@@H]2N)cc1Nc1ccc2cnccc2c1 [Example 12, 5-((1R,2S)-2-aminocyclohexylamino)-3-(isoquinolin-6-ylamino)picolinamide]	10 to 100 nM
NC(=O)c1ncc(N[C@@H]2CCCC[C@@H]2N)cc1Nc1cnc2ccccc2c1 [Example 13, 5-((1R,2S)-2-aminocyclohexylamino)-3-(quinolin-3-ylamino)picolinamide]	100 to 1000 nM
NC(=O)c1ncc(N[C@@H]2CCCC[C@@H]2N)cc1Nc1ccc2ccncc2c1 [Example 14, 5-((1R,2S)-2-aminocyclohexylamino)-3-(isoquinolin-7-ylamino)picolinamide]	10 to 100 nM
NC(=O)c1ncc(N[C@@H]2CCCC[C@@H]2N)cc1Nc1ccc2cccnc2c1 [Example 15, 5-((1R,2S)-2-aminocyclohexylamino)-3-(quinolin-7-ylamino)picolinamide]	10 to 100 nM
CC(C)C[C@@H](Nc1cnc(C(N)=O)c(Nc2ccc3ncccc3c2)c1)C(N)=O [Example 16, (R)-5-(1-amino-4-methyl-1-oxopentan-2-ylamino)-3-(quinolin-6-ylamino)picolinamide]	10 to 100 nM
Cc1cc(Nc2cc(N[C@H](CC3CCCCC3)C(N)=O)cnc2C(N)=O)sn1 [Example 18, (R)-5-(1-amino-3-cyclohexyl-1-oxopropan-2-ylamino)-3-(3-methylisothiazol-5-ylamino)picolinamide]	10 to 100 nM
Cc1cc(Nc2cc(N[C@@H]3CCOC[C@@H]3N)cnc2C(N)=O)sn1 [Example 23, 5-((3R,4R)-3-aminotetrahydro-2H-pyran-4-ylamino)-3-(3-methylisothiazol-5-ylamino)picolinamide]	1 to 10 nM
Cn1cc(Nc2cc(N[C@@H]3CCCC[C@@H]3N)cnc2C(N)=O)cn1 [Example 24, 5-((1R,2S)-2-aminocyclohexylamino)-3-(1-methyl-1H-pyrazol-4-ylamino)picolinamide]	100 to 1000 nM
NC(=O)c1ncc(N[C@@H]2CCCC[C@@H]2N)cc1Nc1cnn2ccccc12 [Example 25, 5-((1R,2S)-2-aminocyclohexylamino)-3-(pyrazolo[1,5-a]pyridin-3-ylamino)picolinamide]	100 to 1000 nM
Cc1cc(Nc2cc(N[C@H]3CC[C@@H](N)CC3)cnc2C(N)=O)sn1 [Example 26, 5-((1S,4S)-4-aminocyclohexylamino)-3-(3-methylisothiazol-5-ylamino)picolinamide]	10 to 100 nM
NC(=O)c1ncc(N[C@@H]2CCCC[C@@H]2N)cc1Nc1cnsc1 [Example 28, 5-((1R,2S)-2-aminocyclohexylamino)-3-(isothiazol-4-ylamino)picolinamide]	100 to 1000 nM
CC(C)C[C@@H](Nc1cnc(C(N)=O)c(Nc2nc(-c3ccccc3)no2)c1)C(N)=O [Example 30, (R)-5-((1-amino-4-methyl-1-oxopentan-2-yl)amino)-3-((3-phenyl-1,2,4-oxadiazol-5-yl)amino)picolinamide]	10 to 100 nM
Cc1nsc(Nc2cc(N[C@H](CC3CC3)C(N)=O)cnc2C(N)=O)c1I [Example 31, (R)-5-((1-amino-3-cyclopropyl-1-oxopropan-2-yl)amino)-3-((4-iodo-3-methylisothiazol-5-yl)amino)picolinamide]	100 to 1000 nM
NC(=O)c1ncc(N[C@@H]2CCCC[C@@H]2N)cc1Nc1cc(C2CC2)no1 [Example 34, 5-((1R,2S)-2-aminocyclohexylamino)-3-(3-cyclopropylisoxazol-5-ylamino)picolinamide]	1 to 10 nM

Results, then the compound that gave them:

IC50	SMILES
1 to 10 nM	Cc1cc(Nc2cc(N[C@H](CC(C)C)C(N)=O)cnc2C(N)=O)sn1 [Example 1, (R)-5-(1-amino-4-methyl-1-oxopentan-2-ylamino)-3-(3-methylisothiazol-5-ylamino)picolinamide]
1 to 10 nM	Cc1cc(Nc2cc(N[C@H](CC3CC3)C(N)=O)cnc2C(N)=O)sn1 [Example 3, (R)-5-(1-amino-3-cyclopropyl-1-oxopropan-2-ylamino)-3-(3-methylisothiazol-5-ylamino)picolinamide]
10 to 100 nM	CC[C@@H](Nc1cnc(C(N)=O)c(Nc2cc(C)ns2)c1)C(N)=O [Example 5, (R)-5-(1-amino-1-oxobutan-2-ylamino)-3-(3-methylisothiazol-5-ylamino)picolinamide]
100 to 1000 nM	NC(=O)c1ncc(N[C@@H]2CCCC(F)(F)[C@@H]2N)cc1Nc1cc(-c2ccccc2)no1 [Example 9, 5-((1R,2R)-2-amino-3,3-difluorocyclohexylamino)-3-(3-phenylisoxazol-5-ylamino)picolinamide]
10 to 100 nM	CC(C)C[C@@H](Nc1cnc(C(N)=O)c(Nc2ccc3cnccc3c2)c1)C(N)=O [Example 17, (R)-5-(1-amino-4-methyl-1-oxopentan-2-ylamino)-3-(isoquinolin-6-ylamino)picolinamide]
10 to 100 nM	NC(=O)c1ncc(N[C@@H]2CCCC[C@@H]2N)cc1Nc1ccc2ncccc2c1 [Example 27, 5-((1R,2S)-2-aminocyclohexylamino)-3-(quinolin-6-ylamino)picolinamide]
10 to 100 nM	NC(=O)c1ncc(N[C@@H]2CCCC[C@@H]2N)cc1Nc1nc(-c2ccccc2)no1 [Example 29, 5-(((1R,2S)-2-aminocyclohexyl)amino)-3-((3-phenyl-1,2,4-oxadiazol-5-yl)amino)picolinamide]
1 to 10 nM	Cc1cc(Nc2cc(NC3(C(N)=O)CC3)cnc2C(N)=O)sn1 [Example 32, 5-(1-carbamoylcyclopropylamino)-3-(3-methylisothiazol-5-ylamino)picolinamide]
10 to 100 nM	CCc1cc(Nc2cc(N[C@@H](C(N)=O)C(C)C)cnc2C(N)=O)sn1 [Example 33, (R)-5-(1-amino-3-methyl-1-oxobutan-2-ylamino)-3-(3-ethylisothiazol-5-ylamino)picolinamide]
10 to 100 nM	CC(C)[C@@H](Nc1cnc(C(N)=O)c(Nc2cc(C3CC3)no2)c1)C(N)=O [Example 35, (R)-5-(1-amino-3-methyl-1-oxobutan-2-ylamino)-3-(3-cyclopropylisoxazol-5-ylamino)picolinamide]
10 to 100 nM	CC(C)c1cc(Nc2cc(N[C@@H]3CCCC[C@@H]3N)cnc2C(N)=O)on1 [Example 36, 5-((1R,2S)-2-aminocyclohexylamino)-3-(3-isopropylisoxazol-5-ylamino)picolinamide]
